# In patent publication US20230012172A1, “COMPOSITIONS AND METHODS FOR TREATMENT OF PLATINUM-BASED CHEMOTHERAPEUTIC RESISTANT TUMORS” (The George Washington University, priority 2020, published 2023):
# Changes are numbered by the printed parent chain.
# What was measured:
# SENP1-C603A = target: T1, SENP1-C603A (Homo sapiens, UniProt Q9P0U3, C603A); assay: In vitro thermal shift assay with mutant SENP1-C603A; type: binding; settings: purified mutant SENP1-C603A
# T1 construct: made in house; host or cells: E. coli implied (pGEX-4T1 vector)
# T1 sequence (Q9P0U3 1-644 C603A): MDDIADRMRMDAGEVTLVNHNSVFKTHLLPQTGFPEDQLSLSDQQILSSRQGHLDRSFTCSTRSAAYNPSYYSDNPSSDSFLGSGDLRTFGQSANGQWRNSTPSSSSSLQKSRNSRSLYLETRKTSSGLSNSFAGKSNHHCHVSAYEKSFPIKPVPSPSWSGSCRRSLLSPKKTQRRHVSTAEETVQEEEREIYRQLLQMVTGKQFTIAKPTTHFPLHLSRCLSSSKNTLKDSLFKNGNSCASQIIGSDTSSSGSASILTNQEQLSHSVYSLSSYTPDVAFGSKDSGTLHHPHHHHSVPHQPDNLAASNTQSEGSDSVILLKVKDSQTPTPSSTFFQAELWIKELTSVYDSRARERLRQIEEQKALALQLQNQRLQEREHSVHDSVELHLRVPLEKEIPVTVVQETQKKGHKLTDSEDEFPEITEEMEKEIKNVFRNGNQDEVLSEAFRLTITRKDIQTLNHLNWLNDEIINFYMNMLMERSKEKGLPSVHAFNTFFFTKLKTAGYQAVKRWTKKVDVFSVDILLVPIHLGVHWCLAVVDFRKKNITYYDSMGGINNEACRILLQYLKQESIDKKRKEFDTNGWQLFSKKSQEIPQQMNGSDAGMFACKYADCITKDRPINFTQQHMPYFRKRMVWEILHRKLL
# PEO4 cells = assay: Cell viability assay (SRB) in PEO4 cells; type: cell-based
# Method: (§1) Cell culture and resistance cell line establishment. IGROV1 cells, U2OS (HTB-96; ATCC), HEK293T (CRL-11268; ATCC) and SKOV3 cells (HTB-77; ATCC) were cultured at 37° C. in DMEM with 10% Fetal Bovine Serum (FBS). PEO1 (10032308; Sigma-Aldrich), PEO4 (10032309; Sigma-Aldrich), PEO14 (10032311; Sigma-Aldrich) and PE023 cells (10032313; Sigma-Aldrich) were cultured at 37° C. in RPMI-1640 with 10% FBS. OV90 (CRL-11732; ATCC) was cultured in medium containing 1:1 MCDB 105 (Sigma) and M199 (Sigma) supplemented with 10% FBS at 37 ° C. All the cells were cultured at in a humidified incubator with 5% CO2 atmosphere. Cisplatin resistant cell lines, including SKOV3 CR, IGROV1 CR and OV90 CR, were generated using an approach similar to that reported in Zhou et al., (2018) Oncogene 37, 3981-3997, the disclosure of which is incorporated herein in its entirety.
# (§2) Cell viability assay. Cells were seeded at 3,000 cells/well in 96-well plates were treated with drugs, followed by incubation for 48 hours, after which cell viability was detected using Sulforhodamine B (SRB) assay (64). Absorbance at 510 nm was detected using a SpectraMax Reader (Molecular Devices) and analyzed with SoftMax Analysis Software (Molecular Devices). Combinational index (CI) values were calculated using CompuSyn software.
# PE023 cells = assay: Cell viability assay (SRB) in PE023 cells; type: cell-based
# Method: as §1, §2
# IGROV1 CR cells = assay: IGROV1 CR xenograft in nude mice; type: in vivo; settings: IGROV1 CR xenograft tumors
# Method: To further evaluate the therapeutic potential of UA in combination with cisplatin in vivo, IGROV1 CR cells were subcutaneously implanted into nude mice to form platinum drug resistant ovarian tumors. The mice with these tumors were then treated with UA, cisplatin, or combination of both via intraperitoneal injection.
# Animal experiments. Xenograft experiments were performed in 6-week female BALB/c athymic nude mice (Jackson Laboratory) by subcutaneously injecting 5×10^6 IGROV1 CR cells within 50% Matrigel gelatinous protein mixture (Corning). Mice were randomized to receive treatment after reached a minimum tumor volume of 150 mm^3. 4 groups of mice (5 mice per group) were treated intraperitoneally with vehicle, cisplatin (8 mg/kg/2day), UA (10 mg/kg/2 days) and combination of UA and cisplatin (10 mg/kg/2 day of UA +8 mg/kg/2 day of cisplatin) for 2 weeks. A minimum of 6 tumors per group were assessed. The tumor volume was calculated according to the formula: length×(width^2)/2.
# Immunohistochemistry. Immunohistochemical (IHC) staining and scoring were performed similar to that previously described n Zhou et al., (2018) Oncogene 37, 3981-3997, the disclosure of which is incorporated herein in its entirety. The quantification of immunohistochemical staining was scored blindly at least by two independent observers.
# SENP1 = target: T2, SENP1 (Homo sapiens, UniProt Q9P0U3); assay: Cell free thermal shift assay with recombinant SENP1; type: binding; parameters: GST (N); made in house; host or cells: E. coli implied (pGEX-4T1 vector; BL21 (DE3) is stated only for pET28a-JAK2)
# T2 sequence (Q9P0U3 1-644): T1 sequence (Q9P0U3 1-644 C603A) with A603C
compound,measurement,setting,value
"CC1(C)CC[C@]2(C(=O)O)CC[C@]3(C)C(=CC[C@@H]4[C@@]5(C)CC[C@H](O[C@@H]6O[C@H](C(=O)O)[C@@H](O)[C@H](O[C@@H]7OC[C@@H](O)[C@H](O)[C@H]7O)[C@H]6O)C(C)(C)[C@@H]5CC[C@]43C)[C@@H]2C1 [Mc, Momordin Ic]",thermal stabilization of SENP1-C603A proteins,SENP1-C603A,no longer stabilized
same,re-sensitization to cisplatin,PEO4 cells,re-sensitized
same,synergy with cisplatin (combination index),PEO4 cells,synergy
same,re-sensitization to cisplatin,PE023 cells,re-sensitized
same,synergy with cisplatin (combination index),PE023 cells,synergy
"C[C@H]1[C@H](C)CC[C@]2(C(=O)O)CC[C@]3(C)C(=CC[C@@H]4[C@@]5(C)CC[C@H](O)C(C)(C)[C@@H]5CC[C@]43C)[C@H]12 [UA, ursolic acid]",thermal stabilization of SENP1-C603A proteins,SENP1-C603A,no longer stabilized
same,expression of pSTAT3 in tumor samples (IHC),IGROV1 CR cells,suppressed
same,thermal stabilization of recombinant SENP1 proteins,SENP1,stabilized
